Reference: patent publication US5534521A, “Benzimidazole compounds” (G. D. Searle & Co., priority 1994, dated 1996)

What was measured:
5-HT3 = assay: Bezold-Jarisch Reflex (5-HT-induced bradycardia in anesthetized mice); type: in vivo; conditions: i.p., 30 min before 5-HT (0.25 mg/kg i.v.), >50 percent reduction in bradycardic response vs vehicle
Protocol: (§1) 5-HT4 agonist activity was determined in the in vitro rat tunica muscularis mucosae (TMM) assay. (Baxter et al., Naunyn Schmied Arch. Pharmacol, 1991, 343, 439). The 5-HT4 agonist or antagonist activity and/or 5-HT3 antagonist activity of the compounds of the invention herein, can be determined by the assays as described herein, without undue experimention.
The compound to be evaluated was administered i.p. (mg/kg) to a group of 3 mice.
This method has been described by Saxena, P. R. and Lawang, A., Arch. Int. Pharmacodyn., 277:235-252, 1985.

5-HT3 receptor = target: T1, 5-HT3 receptor (Rattus norvegicus, UniProt P35563); assay: Serotonin (5-HT3) radioligand receptor binding, [3H]-GR65630, rat brain cortex membranes
T1 construct: Brain cortices were obtained from male rats and a membrane fraction prepared by standard techniques; from tissue; host or cells: rat brain cortex membranes (male rats)
T1 sequence (P35563 24-483): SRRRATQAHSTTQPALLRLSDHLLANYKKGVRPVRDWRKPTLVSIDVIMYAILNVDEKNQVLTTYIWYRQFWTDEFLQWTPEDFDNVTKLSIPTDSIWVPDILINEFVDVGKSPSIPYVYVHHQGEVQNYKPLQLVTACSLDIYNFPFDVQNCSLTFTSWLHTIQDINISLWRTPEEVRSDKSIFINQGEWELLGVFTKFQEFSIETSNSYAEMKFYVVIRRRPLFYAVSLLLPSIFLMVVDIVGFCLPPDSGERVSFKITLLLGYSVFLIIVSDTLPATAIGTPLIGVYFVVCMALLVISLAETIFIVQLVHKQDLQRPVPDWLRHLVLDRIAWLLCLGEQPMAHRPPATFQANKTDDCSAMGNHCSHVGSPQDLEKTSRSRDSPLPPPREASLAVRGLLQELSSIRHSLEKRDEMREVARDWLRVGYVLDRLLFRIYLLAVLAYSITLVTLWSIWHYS
Protocol: as §1
GR65630 binds to the 5-HT3 receptor. Brain cortices were obtained from male rats and a membrane fraction prepared by standard techniques. 0.04 mg of membrane prep was incubated with 0.2 nM […] for 60 minutes at 22° C. […] Kilpatrick G. J., Jones B. J. and Tyers M. B. Identification and distribution of 5-HT3 receptors in rat brain using radioligand binding assay. Nature, 330: 746-748, 1987.

5-HT4 receptor = target: T2, 5-HT4 receptor (Rattus norvegicus, UniProt Q62758); assay: cell-based; conditions: carbachol (3 μM) contracted rat tunica muscularis mucosae, 37° C., cumulative addition, tissues from 5 rats; read-out: 5-HT4 Agonism (Rat TMM) In Vitro Assay: EC50 Values
T2 construct: One 2 cm segment of intrathoracic esophagus proximal to the diaphragm was removed from male rats; from tissue; host or cells: rat intrathoracic esophagus, inner tunica muscularis mucosae (male rats)
T2 sequence (Q62758 whole entry): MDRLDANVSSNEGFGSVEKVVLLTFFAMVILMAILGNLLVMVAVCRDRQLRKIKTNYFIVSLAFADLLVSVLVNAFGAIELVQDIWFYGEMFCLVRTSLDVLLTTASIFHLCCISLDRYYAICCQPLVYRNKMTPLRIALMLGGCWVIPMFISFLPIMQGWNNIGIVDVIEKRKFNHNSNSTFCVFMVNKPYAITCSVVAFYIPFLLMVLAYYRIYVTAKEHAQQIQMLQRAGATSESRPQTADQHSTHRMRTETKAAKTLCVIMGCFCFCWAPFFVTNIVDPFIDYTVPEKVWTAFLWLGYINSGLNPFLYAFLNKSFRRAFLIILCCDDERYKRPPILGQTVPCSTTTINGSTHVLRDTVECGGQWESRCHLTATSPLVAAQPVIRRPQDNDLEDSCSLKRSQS
Protocol: as §1
Agonist activity was determined utilizing relaxation of carbachol-contracted rat tunica muscularis mucosae. One 2 cm segment of intrathoracic esophagus proximal to the diaphragm was removed from male rats, weighing approximately 300 gm, and the outer muscle layers removed. The inner tunica muscularis mucosa was mounted under 0.2-0.3 g of tension in a tissue bath containing oxygenated Tyrode's solution at 37° C. […] Following a 30 min equilibrium period, tissues were isometrically contracted with carbachol (3 μM) to obtain a tonic contraction. A stable plateau was obtained within 20 min when test compound was added cumulatively to relax the muscle strip. EC50 values were obtained for each agonist in tissues from 5 rats.

SMILES	Minimum Effective Dose (MED) (5-HT3) [mg/kg]	other results
CC(C)n1c(=O)n(C(=O)NC[C@@H]2CCN3CCC[C@@H]23)c2ccccc21 (relative stereo) [Example 23, cis-N-[(hexahydro-1H-pyrrolizin-1-yl)methyl]-2,3-dihydro-3-(1-methylethyl)-2-oxo-1H-benzimidazole-1-carboxamide]	1	Ki (5-HT3 receptor): 75 nM; EC50 (5-HT4 receptor): 374 nM
CN1C2CCCC1CC(NC(=O)c1nn(C)c3ccccc13)C2 (stereo not drawn) [BRL-43694]	0.05	–
CC(C)n1c(=O)n(C(=O)NCCC23CCCN2CCC3)c2ccccc21 [Example 13, N-[2-(hexahydro-7aH-pyrrolizin-7a-yl)ethyl]-2,3-dihydro-3-(1-methylethyl)-2-oxo-1H-benzimidazole-1-carboxamide]	10	–
CC(C)n1c(=O)n(C(=O)NC2C3CC4CC2CN(C4)C3)c2ccc(Cl)cc21 (stereo not drawn) [Example 17, N-(1-azatricyclo[3.3.1.1^3,7]decan-4-yl)-5-chloro-2,3-dihydro-3-(1-methylethyl)-2-oxo-1H-benzimidazole-1-carboxamide]	–	inhibition at 10 µM (5-HT3 receptor; 1 h, read-out: Effect of Compounds on [H]-GR65630 Bound (0.2 nM), % @ 10,000 nM): 41%
CC(C)n1c(=O)n(C(=O)NC2C3CC4CC2CN(C4)C3)c2cc(Cl)ccc21 (stereo not drawn) [Example 22B, N-(1-azatricyclo[3.3.1.1^3,7]decan-4-yl)-6-chloro-2,3-dihydro-3-(1-methylethyl)-2-oxo-1H-benzimidazole-1-carboxamide]	–	Ki (5-HT3 receptor): 4.9 nM
Cc1nc[nH]c1CCC(=O)c1cn(C)c2ccccc12 [GR65630]	–	% Specific Binding (5-HT3 receptor; radioligand, non-specific binding in the presence of 1 uM ICS 205-930): 70%
O=c1[nH]c2ccccc2n1CCCN1CCC(n2c(=O)[nH]c3cc(Cl)ccc32)CC1 [domperidone]	> 10	–
CCC(CO)NC(=O)C1C=C2c3cccc4c3c(cn4C)CC2N(C)C1 (stereo not drawn) [methylsergide]	> 10	–
CCN(CC)CCNC(=O)c1cc(Cl)c(N)cc1OC [metoclopramide]	5	–
CN1[C@@H]2C[C@@H](OC(=O)[C@H](CO)c3ccccc3)C[C@H]1[C@@H]1O[C@@H]12 [scopolamine]	2.5	–
